# Laboratory results: patent US11612583B2, “Disease modifying methods for treating neurodegenerative diseases using nootropic agents” (priority 2018, dated 2023)
# “Also recorded” adds a separate entry of the source.
# What was measured:
# PINK1-KO rats [1] = assay: Tapered beam balance test (coordination and balance) in PINK1-KO rats; format: in vivo, rat; conditions: intraperitoneal Forskolin 1.6 mg/kg with or without Noopept 0.05 μg/kg; 10 days; post vs pre-treatment; FIG. 10
# Description: (§1) All experiments involving mice and rats were performed in accord with ARRIVE (Animal Research: Reporting of In Vivo Experiments) guidelines. Wild-type C57BL/6 and PINK1 knockout mice (B6.129S4-Pink1^tm1Slm/J), wild-type (Long Evans rats) and PINK1 knockout (LEH-PINK1^tm1sage.Park6) rats (SAGE labs through Horizon Discovery) were handled humanely and appropriately per the ARRIVE guidelines. All mice were housed at the Laboratory of Animal Resources (University of Nevada, Reno) in cages containing sufficient bedding, food (pellets), water, with sufficient social, nutritional and “enriched” environments, and maintained in HVAC-pressurized/sterile environment and in 12:12 hr light/dark cycles.
# Wild-type (PINK1+/+) or PINK1 knockout (PINK1−/−) rats were treated with intraperitoneal injections of DMSO control or of Forskolin (1.6 mg/kg body weight) once every 2 days for two doses followed by co-administration with Noopept (0.05 μg/kg) for three more doses (once every two days) for up to a total treatment time of 10 days. […] In addition, muscle coordination and balance were assessed by subjecting the rats to cross a 1-meter, tapered beam balance (2 cm width) for up to three trials per animal. […]
# PINK1-KO rats [2] = assay: Tyrosine hydroxylase immunofluorescence in midbrain slices of PINK1-KO rats; format: in vivo, rat; conditions: female PINK1-KO rats; intraperitoneal Forskolin 1.6 mg/kg with or without Noopept 0.05 μg/kg; FIG. 13
# Description: Wild-type (PINK1+/+) or PINK1 knockout (PINK1−/−) rats were treated with intraperitoneal injections of DMSO control or of Forskolin (1.6 mg/kg body weight) once every 2 days for two doses followed by co-administration with Noopept (0.05 μg/kg) for three more doses (once every two days) for up to a total treatment time of 10 days. At the end of each treatment, a battery of motor tests were performed in vehicle-treated or WT and PINK1-KO rats treated with compounds to analyze for muscle strength in hind legs by using a grip strength analyzer. In addition, muscle coordination and balance were assessed by subjecting the rats to cross a 1-meter, tapered beam balance (2 cm width) for up to three trials per animal. Another group of wild-type and PINK1-KO rats were sacrificed, and intracardially perfused with saline followed by 4% formaldehyde. Midbrain slices from wild-type and PINK1-KO rats were immunostained for tyrosine hydroxylase (TH, purple) to identify midbrain dopamine neurons. […] (*:p<0.05 vs. WT/vehicle, **:p<0.05 vs. PINK1-KO/vehicle, One-Way ANOVA, Tukey's test, N=4-7 rats per group).
# [3] = system: primary cortical neurons treated with rotenone; assay: Extracellular acidification rates (ECARs), proxy for glycolysis, in rotenone-treated primary cortical neurons; format: cell-based, mouse; conditions: after rotenone 65 nM 24 hours, 6.5 μM-8.5 μM, FIG. 3
# Description: Rotenone (1.26 mM stock, Sigma, Cat #R8875) was freshly prepared in water prior to each use. Stocks of rotenone were maintained in the dark at −20° C. for up to 6 months. […]
# The extracellular acidification rates (ECARs), a proxy for glycolysis, were also assessed by using an XF24^e Extracellular Flux Analyzer in primary neurons.
# PINK1 knockout mice = assay: Dendrite length and mitochondrial content of substantia nigra dopamine neurons in PINK1 knockout mice; format: in vivo, mouse; conditions: intraperitoneal 1 mg/kg once every 2 days up to one week, vs untreated PINK1 knockout mice
# Description: as §1
# Wild-type (PINK1+/+) or PINK1 knockout (PINK1−/−) mice were treated with intraperitoneal injections of DMSO control or Forskolin (1 mg/kg body weight) once every 2 days for up to one week. At the end of each treatment, mice were sacrificed, and intracardially perfused with saline followed by 4% formaldehyde. Midbrain slices from wild-type and PINK1 KO mice were immunostained for mitochondria (TOM20) and tyrosine hydroxylase (TH, purple) to identify midbrain dopamine neurons and dendrite length.
# PINK1-KO rats [4] = assay: Baseline oxygen consumption rates in midbrain slices of PINK1-KO rats; format: in vivo, rat; conditions: intraperitoneal Forskolin 1.6 mg/kg with or without Noopept 0.05 μg/kg; FIG. 12
# Description: Wild-type (PINK1+/+) or PINK1 knockout (PINK1−/−) rats were treated with intraperitoneal injections of DMSO control or of Forskolin (1.6 mg/kg body weight) once every 2 days for two doses followed by co-administration with Noopept (0.05 μg/kg) for three more doses (once every two days) for up to a total treatment time of 10 days. At the end of each treatment, a battery of motor tests were performed in vehicle-treated or WT and PINK1-KO rats treated with compounds to analyze for muscle strength in hind legs by using a grip strength analyzer. In addition, muscle coordination and balance were assessed by subjecting the rats to cross a 1-meter, tapered beam balance (2 cm width) for up to three trials per animal. Upon completing the behavioral tests, the rats were then transcardially perfused with phosphate buffered saline, and the brains were extracted, midbrain slices were generated by using a vibratome (brain slicer) at room temperature and maintained in artificial cerebral spinal fluid. The oxygen consumption rates were then measured by using an XF24^e Metabolic Analyzer to measure energy production in the brain (oxidative phosphorylation) as described in Example 1 but with the following modifications. […] The brain slices were analyzed for baseline respiration for five cycles with each cycle consisting of 3 min. of mixing, 3 min. of waiting and 2 min. of measuring OCRs.
structure (smiles),measurement,setting,value
C=C[C@@]1(C)CC(=O)[C@]2(O)[C@@]3(C)[C@@H](O)CCC(C)(C)[C@@H]3[C@H](O)[C@H](OC(C)=O)[C@@]2(C)O1 [Forskolin],"coordination and balance (motor score, falls and slips per crossing)",PINK1-KO rats [1],can reverse the loss of coordination and balance; also recorded: can reverse the loss of balance and coordination
same,substantia nigra/midbrain dopamine neurons (integrated density of TH immunofluorescence),PINK1-KO rats [2],completely reverses the loss of midbrain dopamine neurons; also recorded: significantly reversed neurodegeneration
same,glycolysis (baseline ECARs),[3],completely restored normal glycolytic function; also recorded: significantly restored
same,dendrite length of substantia nigra dopamine neurons,PINK1 knockout mice; FIG. 6A,significantly increased; also recorded: reverses the loss of dendrites
same,mitochondrial content in dendrites of substantia nigra dopamine neurons,PINK1 knockout mice; FIG. 6B,significantly increased; also recorded: reverses the loss of dendrites and mitochondria in dendrites
same,basal respiration / oxidative phosphorylation in the midbrain (baseline OCRs),PINK1-KO rats [4],sufficient to reverse the loss in oxidative phosphorylation; also recorded: significantly restored basal respiration
